Data published in patent US20240246992A1, “MACROCYCLIC LRRK2 KINASE INHIBITORS” (LES LABORATOIRES SERVIER, priority 2021, published 2024).

target: human recombinant LRRK2 protein (Homo sapiens, UniProt Q5S007); test: LRRK2 kinase activity assay (ADP-Glo, LRRKtide peptide); format: biochemical; conditions: human recombinant LRRK2 wt, LRRKtide peptide and ATP, 1 h at 37° C.
Procedure: The inhibition of LRRK2 kinase was assessed using human recombinant LRRK2 protein in an in vitro peptide-based kinase assay.
LRRK2 Kinase reactions were carried out in 384-well white polystyrene plates in a final volume of 6 μl using ADP-Glo™ Kinase Assay kit (Promega Corp.). Compound and substrates (LRRKtide peptide and ATP) in assay buffer were first dispensed in wells. Kinase reaction was then started by the addition of human recombinant LRRK2 protein. After 1 h-incubation at 37° C., the enzymatic reactions was stopped by the addition of 6 μl of ADP-Glo Reagent-1 and an additional 40-minutes incubation at 23° C. (residual ATP depletion). A final 30-minutes incubation after 12 μL reagent-2 addition (ADP to ATP conversion and luciferin/luciferase reaction) was performed before luminescent signal acquisition (EnVision™ multimode plate reader—PerkinElmer, Inc.). Data from 10 individual concentrations of tested compounds (N=2) were fitted (XLfit™—ID Business Solutions Ltd) to deliver IC50s (compound concentration leading to 50% inhibition of reference enzymatic activity).
The compounds are dissolved to 5 mM in DMSO. When needed, solutions are sonicated in a bath sonicator.
Table 2 provides the pIC50 values of the compounds according to the invention, obtained using the above mentioned kinase assay. Activities are represented as +++, ++ and +, having the following meanings: • «+++» means an IC50<10 nM • «++» means an IC50<100 nM • «+» means an IC50<1 μM • «−» means an IC50>1 μM

Chain of human recombinant LRRK2 protein (Q5S007 whole entry): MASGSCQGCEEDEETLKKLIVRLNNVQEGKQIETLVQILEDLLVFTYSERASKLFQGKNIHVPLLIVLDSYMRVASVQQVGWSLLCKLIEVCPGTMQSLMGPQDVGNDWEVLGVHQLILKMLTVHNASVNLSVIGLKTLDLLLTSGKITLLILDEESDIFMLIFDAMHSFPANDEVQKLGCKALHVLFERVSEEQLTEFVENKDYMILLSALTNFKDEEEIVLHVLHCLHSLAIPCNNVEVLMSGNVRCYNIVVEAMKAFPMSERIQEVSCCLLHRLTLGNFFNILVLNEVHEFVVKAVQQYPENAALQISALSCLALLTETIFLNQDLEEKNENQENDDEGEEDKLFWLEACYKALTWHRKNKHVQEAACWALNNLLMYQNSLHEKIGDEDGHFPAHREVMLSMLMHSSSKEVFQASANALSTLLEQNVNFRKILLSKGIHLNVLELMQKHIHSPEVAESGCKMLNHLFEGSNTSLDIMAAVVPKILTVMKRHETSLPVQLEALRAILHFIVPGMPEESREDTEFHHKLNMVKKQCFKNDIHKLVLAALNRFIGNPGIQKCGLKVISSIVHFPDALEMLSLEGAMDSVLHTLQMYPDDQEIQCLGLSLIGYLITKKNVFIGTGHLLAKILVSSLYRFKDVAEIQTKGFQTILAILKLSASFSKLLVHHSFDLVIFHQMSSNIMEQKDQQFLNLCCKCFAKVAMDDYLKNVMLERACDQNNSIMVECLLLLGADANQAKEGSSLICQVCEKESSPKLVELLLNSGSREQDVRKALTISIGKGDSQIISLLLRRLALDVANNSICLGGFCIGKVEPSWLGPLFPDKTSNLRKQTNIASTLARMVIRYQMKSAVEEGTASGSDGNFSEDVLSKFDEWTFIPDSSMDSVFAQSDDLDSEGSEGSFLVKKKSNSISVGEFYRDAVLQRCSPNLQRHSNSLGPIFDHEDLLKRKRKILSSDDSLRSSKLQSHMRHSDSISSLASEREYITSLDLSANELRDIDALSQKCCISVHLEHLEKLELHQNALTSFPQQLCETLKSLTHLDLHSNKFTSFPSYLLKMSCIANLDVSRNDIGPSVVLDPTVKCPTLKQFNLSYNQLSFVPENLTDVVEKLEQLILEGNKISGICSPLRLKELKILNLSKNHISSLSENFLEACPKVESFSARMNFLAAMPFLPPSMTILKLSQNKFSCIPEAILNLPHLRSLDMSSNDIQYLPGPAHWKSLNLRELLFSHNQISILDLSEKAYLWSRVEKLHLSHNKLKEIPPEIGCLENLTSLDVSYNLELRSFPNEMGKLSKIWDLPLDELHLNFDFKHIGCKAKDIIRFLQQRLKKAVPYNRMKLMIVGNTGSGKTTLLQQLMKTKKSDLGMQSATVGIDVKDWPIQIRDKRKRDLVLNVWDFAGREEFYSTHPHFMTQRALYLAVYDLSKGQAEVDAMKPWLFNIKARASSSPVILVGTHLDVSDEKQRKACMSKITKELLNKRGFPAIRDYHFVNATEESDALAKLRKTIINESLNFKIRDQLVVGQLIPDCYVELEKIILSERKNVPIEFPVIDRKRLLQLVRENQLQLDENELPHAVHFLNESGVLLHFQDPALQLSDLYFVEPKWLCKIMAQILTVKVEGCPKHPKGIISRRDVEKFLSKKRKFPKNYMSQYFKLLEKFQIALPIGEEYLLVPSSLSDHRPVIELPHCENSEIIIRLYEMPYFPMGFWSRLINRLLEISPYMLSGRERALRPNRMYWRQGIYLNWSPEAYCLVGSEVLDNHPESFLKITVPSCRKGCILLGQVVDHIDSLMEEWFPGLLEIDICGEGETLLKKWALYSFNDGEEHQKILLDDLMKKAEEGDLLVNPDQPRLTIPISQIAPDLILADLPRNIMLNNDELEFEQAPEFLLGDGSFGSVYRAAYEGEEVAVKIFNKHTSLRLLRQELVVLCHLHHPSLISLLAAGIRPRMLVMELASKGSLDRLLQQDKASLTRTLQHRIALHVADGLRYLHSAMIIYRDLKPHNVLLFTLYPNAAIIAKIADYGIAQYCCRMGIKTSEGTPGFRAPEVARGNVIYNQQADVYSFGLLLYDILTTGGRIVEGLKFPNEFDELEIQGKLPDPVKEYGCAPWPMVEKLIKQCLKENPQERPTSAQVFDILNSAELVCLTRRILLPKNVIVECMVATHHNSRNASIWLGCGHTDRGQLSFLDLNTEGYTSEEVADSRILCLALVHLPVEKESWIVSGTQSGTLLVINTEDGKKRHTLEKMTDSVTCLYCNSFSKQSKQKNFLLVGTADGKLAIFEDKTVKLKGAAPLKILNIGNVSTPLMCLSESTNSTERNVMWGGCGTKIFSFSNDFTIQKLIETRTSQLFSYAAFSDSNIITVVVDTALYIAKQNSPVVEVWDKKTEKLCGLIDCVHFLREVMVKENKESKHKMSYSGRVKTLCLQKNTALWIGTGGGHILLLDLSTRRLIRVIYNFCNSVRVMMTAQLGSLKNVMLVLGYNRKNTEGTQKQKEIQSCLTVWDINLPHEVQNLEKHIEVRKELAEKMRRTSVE

**Q.** For `C[C@H]1CCOCCOc2nccc(n2)-c2n[nH]c3ccc(cc23)O1` [Example 16, (13S)-13-methyl-7,10,14-trioxa-5,19,20,23-tetraazatetracyclo[13.5.2.1^2,6. 0^18,21]tricosa-1(20),2(23),3,5,15(22),16,18(21)-heptaene], which IC50 is on record?
**A.** Its IC50 is under 10 nM.

**Q.** Which IC50 does the source give for `C[C@@H]1CCOC[C@@H](C)Oc2ccc3[nH]nc(c3c2)-c2cncc(c2)O1` [Example 17, (8R,13R)-8,13-dimethyl-7,11,14-trioxa-4,19,20-triazatetracyclo[13.5.2.1^2,6. 0^18,21]tricosa-1(20),2(23),3,5,15(22),16,18(21)-heptaene] here?
**A.** Its IC50 is under 10 nM.

**Q.** How did the IC50 turn out when `C[C@@H]1CCOC[C@H](C)Oc2ccc3[nH]nc(c3c2)-c2cncc(c2)O1` [Example 18, (8R,13S)-8,13-dimethyl-7,11,14-trioxa-4,19,20-triazatetracyclo[13.5.2.1^2,6. 0^18,21]tricosa-1(20),2(23),3,5,15(22),16,18(21)-heptaene] was run?
**A.** Its IC50 is under 10 nM.

**Q.** For `C[C@H]1COCCCOc2nc(cc(N3CCCC3)n2)-c2n[nH]c3ccc(cc23)O1` [Example 19, (13S)-13-methyl-4-(pyrrolidin-1-yl)-7,11,14-trioxa-5,19,20,23-tetraazatetra cyclo[13.5.2.1^2,6.0^18,21]tricosa-1(20),2(23),3,5,15(22),16,18(21)heptaene], which IC50 is on record?
**A.** The IC50 was under 10 nM.

**Q.** How did the IC50 turn out when `C[C@H]1CCOC[C@H](C)Oc2cncc(c2)-c2n[nH]c3ccc(cc23)O1` [Example 20, (8S,13S)-8,13-dimethyl-7,10,14-trioxa-4,19,20-triazatetracyclo[13.5.2.1^2,6. 0^18,21]tricosa-1(20),2(23),3,5,15(22),16,18(21)-heptaene] was run?
**A.** The IC50 was under 100 nM.

**Q.** `C[C@@H]1COCC[C@H](C)Oc2ccc3[nH]nc(c3c2)-c2cncc(c2)O1` [Example 21, (8R,13S)-8,13-dimethyl-7,10,14-trioxa-4,19,20-triazatetracyclo[13.5.2.1^2,6.0^18,21]tricosa-1(20),2(23),3,5,15(22),16,18(21)-heptaene] was tested. Which IC50 did it give?
**A.** The IC50 was under 10 nM.

**Q.** `C[C@@H]1CCOC[C@H](C)Oc2cncc(c2)-c2n[nH]c3ccc(cc23)O1` [Example 22, (8S,13R)-8,13-dimethyl-7,10,14-trioxa-4,19,20-triazatetracyclo[13.5.2.1^2,6.0^18,21]tricosa-1(20),2(23),3,5,15(22),16,18(21)-heptaene] was tested. Which IC50 did it give?
**A.** Its IC50 is under 10 nM.

**Q.** How did the IC50 turn out when `C[C@@H]1CCOC[C@@H](C)Oc2cncc(c2)-c2n[nH]c3ccc(cc23)O1` [Example 23, (8R,13R)-8,13-dimethyl-7,10,14-trioxa-4,19,20-triazatetracyclo[13.5.2.1^2,6.0^18,21]tricosa-1(20),2(23),3,5,15(22),16,18(21)-heptaene] was run?
**A.** Its IC50 is under 10 nM.

**Q.** Which IC50 does the source give for `C[C@H]1COCCOCCn2cc(cn2)-c2n[nH]c3ccc(cc23)O1` [Example 24, (13S)-13-methyl-8,11,14-trioxa-4,5,19,20-tetraazatetracyclo[13.5.2.1^2,5.0^18,21]tricosa-1(20),2(23),3,15(22),16,18(21)-hexaene] here?
**A.** The IC50 was under 10 nM.

**Q.** How did the IC50 turn out when `C[C@@H]1CCOCC[C@H](C)Oc2ccc3[nH]nc(c3c2)-c2cnn1c2` [Example 25, (6R,12S)-6,12-dimethyl-9,13-dioxa-4,5,18,19-tetraazatetracyclo[12.5.2.1^2,5.0^17,20]docosa-1(19),2(22),3,14(21),15,17(20)-hexaene] was run?
**A.** The IC50 was under 100 nM.

**Q.** `C[C@H]1COCCCOc2nccc(n2)-c2n[nH]c3ccc(cc23)O1` [Example 26, (13S)-13-methyl-7,11,14-trioxa-5,19,20,23-tetraazatetracyclo[13.5.2.1^2,6.0^18,21]tricosa-1(20),2(23),3,5,15(22),16,18(21)-heptaene] was tested. Which IC50 did it give?
**A.** The IC50 was under 10 nM.

**Q.** Which IC50 does the source give for `COC1CN(c2cc3nc(n2)OCCCOC[C@H](C)Oc2ccc4[nH]nc-3c4c2)C1` [Example 27, (13S)-4-(3-methoxyazetidin-1-yl)-13-methyl-7,11,14-trioxa-5,19,20,23-tetra azatetracyclo[13.5.2.1^2,6.0^18,21]tricosa-1(20),2(23),3,5,15(22),16,18(21) heptaene] here?
**A.** The IC50 was under 10 nM.

**Q.** With `C[C@H]1CCOCCOc2cccc(n2)-c2n[nH]c3ccc(cc23)O1` [Example 28, (13S)-13-methyl-7,10,14-trioxa-19,20,23-triazatetracyclo [13.5.2.1^2,6.0^18,21] tricosa-1(20),2(23),3,5,15(22),16,18(21)-heptaene] as the molecule, how does the IC50 read?
**A.** Its IC50 is under 10 nM.

**Q.** How did the IC50 turn out when `Cc1cc2nc(n1)OCCCOC[C@H](C)Oc1ccc3[nH]nc-2c3c1` [Example 29, (13S)-4,13-dimethyl-7,11,14-trioxa-5,19,20,23-tetraazatetracyclo[13.5.2.1^2,6.0^18,21]tricosa-1(20),2(23),3,5,15(22),16,18(21)-heptaene] was run?
**A.** The IC50 was under 10 nM.

**Q.** How did the IC50 turn out when `C[C@H]1CCOCCOc2nccc(n2)-c2n[nH]c3ccc(cc23)N1` [Example 30, (13S)-13-methyl-7,10-dioxa-5,14,19,20,23-pentaazatetracyclo[13.5.2.1^2,6.0^18,21]tricosa-1(20),2(23),3,5,15(22),16,18(21)-heptaene] was run?
**A.** Its IC50 is under 100 nM.

**Q.** How did the IC50 turn out when `CC1(C)COCCCOc2ccc3[nH]nc(c3c2)-c2cnn(c2)C1` [Example 31, 7,7-dimethyl-9,13-dioxa-4,5,18,19-tetraazatetracyclo[12.5.2.1^2,5.0^17,20] docosa-1(19),2(22),3,14(21),15,17(20)-hexaene] was run?
**A.** The IC50 was under 10 nM.

**Q.** Which IC50 does the source give for `C[C@H]1CCOCCCn2cc(cn2)-c2n[nH]c3ccc(cc23)O1` [Example 32, (12S)-12-methyl-9,13-dioxa-4,5,18,19-tetraazatetracyclo[12.5.2.1^2,5.0^17,20] docosa-1(19),2(22),3,14(21),15,17(20)-hexaene] here?
**A.** Its IC50 is under 10 nM.

**Q.** How did the IC50 turn out when `C[C@@H]1COCC[C@H](C)Oc2ccc3[nH]nc(c3c2)-c2cccc(n2)O1` [Example 33, (8R,13S)-8,13-dimethyl-7,10,14-trioxa-19,20,23-triazatetracyclo[13.5.2.1^2,6.0^18,21]tricosa-1(20),2(23),3,5,15(22),16,18(21)-heptaene] was run?
**A.** The IC50 was under 100 nM.

**Q.** With `COC1CN(c2cc3nc(n2)OCCOCC[C@H](C)Nc2ccc4[nH]nc-3c4c2)C1` [Example 34, (13S)-4-(3-methoxyazetidin-1-yl)-13-methyl-7,10-dioxa-5,14,19,20,23-pentaazatetracyclo[13.5.2.1^2,6.0^18,21]tricosa-1(20),2,4,6(23),15(22),16, 18(21)-heptaene] as the molecule, how does the IC50 read?
**A.** The IC50 was under 10 nM.

**Q.** For `C[C@@H]1CCOCC[C@@H](C)n2cc(cn2)-c2n[nH]c3ccc(cc23)O1` [Example 35, (6R,12R)-6,12-dimethyl-9,13-dioxa-4,5,18,19-tetraazatetracyclo[12.5.2.1^2,5.0^17,20]docosa-1(19),2(22),3,14(21),15,17(20)-hexaene], which IC50 is on record?
**A.** The IC50 was under 10 nM.

**Q.** How did the IC50 turn out when `C[C@@H]1CCOCC[C@H](C)n2cc(cn2)-c2n[nH]c3ccc(cc23)O1` [Example 36, (6S,12R)-6,12-dimethyl-9,13-dioxa-4,5,18,19-tetraazatetracyclo[12.5.2.1^2,5.0^17,20]docosa-1(19),2(22),3,14(21),15,17(20)-hexaene] was run?
**A.** The IC50 was under 10 nM.

**Q.** For `C[C@H]1CCn2cc(cn2)-c2n[nH]c3ccc(cc23)OCCCO1` [Example 37, (8S)-8-Methyl-9,13-dioxa-4,5,18,19-tetraazatetracyclo[12.5.2.1^2,5.0^17,20] docosa-1(19),2(22),3,14(21),15,17(20)-hexaene], which IC50 is on record?
**A.** The IC50 was under 10 nM.

**Q.** For `C[C@H]1CCOCC[C@H](C)n2cc(cn2)-c2n[nH]c3ccc(cc23)O1` [Example 38, (6S,12S)-6,12-dimethyl-9,13-dioxa-4,5,18,19-tetraazatetracyclo [12.5.2.1^2,5.0^17,20]docosa-1(19),2(22),3,14(21),15,17(20)-hexaene], which IC50 is on record?
**A.** The IC50 was under 10 nM.

**Q.** Which IC50 does the source give for `C[C@H]1CCOCCOc2nc(cc(N3CCCC3)n2)-c2n[nH]c3ccc(cc23)N1` [Example 39, (13S)-13-methyl-4-(pyrrolidin-1-yl)-7,10-dioxa-5,14,19,20,23-pentaazatetra cyclo[13.5.2.1^2,6.0^18,21]tricosa-1(20),2(23),3,5,15(22),16,18(21)-heptaene] here?
**A.** The IC50 was under 10 nM.

**Q.** How did the IC50 turn out when `Cc1cc2nc(n1)OCCOCC[C@H](C)Nc1ccc3[nH]nc-2c3c1` [Example 40, (13S)-4,13-dimethyl-7,10-dioxa-5,14,19,20,23-pentaazatetracyclo[13.5.2.1^2,6.0^18,21]tricosa-1(20),2(23),3,5,15(22),16,18(21)-heptaene] was run?
**A.** The IC50 was under 10 nM.

**Q.** With `C[C@@H]1CCOCCOc2cncc(n2)-c2n[nH]c3ccc(cc23)O1` [Example 41, (13R)-13-methyl-7,10,14-trioxa-4,19,20,23-tetraazatetracyclo[13.5.2.1^2,6.0^18,21]tricosa-1(20),2(23),3,5,15(22),16,18(21)-heptaene] as the molecule, how does the IC50 read?
**A.** The IC50 was under 10 nM.

**Q.** With `C[C@@H]1CCOCCCn2cc(cn2)-c2n[nH]c3ccc(cc23)O1` [Example 42, (12R)-12-methyl-9,13-dioxa-4,5,18,19-tetraazatetracyclo [12.5.2.1^2,5.0^17,20]docosa-1(19),2(22),3,14(21),15,17(20)-hexaene] as the molecule, how does the IC50 read?
**A.** The IC50 was under 10 nM.

**Q.** With `C[C@H]1CCOCCCc2cccc(c2)-c2n[nH]c3ccc(cc23)O1` [Example 43, (13S)-13-methyl-10,14-dioxa-19,20-diazatetracyclo[13.5.2.1^2,6.0^18,21]tricosa-1(20),2(23),3,5,15(22),16,18(21)-heptaene] as the molecule, how does the IC50 read?
**A.** The IC50 was under 10 nM.
